Assay [1] concerns Phakopsora pachyrhizi. The experiment in a line: In vivo protective test on Phakopsora pachyrhizi (soybeans). The settings on record: 250 ppm of active ingredient, evaluated 11 days after inoculation.
The subject of assay [2] is Uromyces appendiculatus. The experiment in a line: In vivo preventive test on Uromyces appendiculatus (bean rust). The settings on record: 100 ppm of active ingredient, evaluated 10 days after inoculation. On the procedure: Solvent: 24.5 parts by weight of acetone • 24.5 parts by weight of N,N-dimethylacetamide Emulsifier: 1 part by weight of alkylaryl polyglycol ether To produce a suitable preparation of active compound, 1 part by weight of active compound is mixed with the stated amounts of solvent and emulsifier, and the concentrate is diluted with water to the desired concentration. To test for preventive activity, young plants are sprayed with the preparation of active compound at the stated rate of application. After the spray coating has dried on, the plants are inoculated with an aqueous spore suspension of the causal agent of bean rust (Uromyces appendiculatus) and then remain for 1 day in an incubation cabinet at approximately 20° C. and a relative atmospheric humidity of 100%. The plants are then placed in a greenhouse at approximately 21° C. and a relative atmospheric humidity of approximately 90%. The test is evaluated 10 days after the inoculation. 0% means an efficacy which corresponds to that of the untreated control, while an efficacy of 100% means that no disease is observed.

The subject of assay [3] is Blumeria graminis f. sp. hordei. The experiment in a line: In vivo preventive test on Blumeria graminis (barley). The settings on record: 500 ppm of active ingredient, evaluated 7 days after inoculation. The protocol:
(§1) Solvent: 49 parts by weight of N,N-dimethylacetamide Emulsifier: 1 part by weight of alkylaryl polyglycol ether To produce a suitable preparation of active compound, 1 part by weight of active compound or active compound combination is mixed with the stated amounts of solvent and emulsifier, and the concentrate is diluted with water to the desired concentration. To test for preventive activity, young plants are sprayed with the preparation of active compound or active compound combination at the stated rate of application. After the spray coating has been dried, the plants are dusted with spores of Blumeria graminis f. sp. hordei. The plants are placed in the greenhouse at a temperature of approximately 18° C. and a relative atmospheric humidity of approximately 80% to promote the development of mildew pustules. The test is evaluated 7 days after the inoculation. 0% means an efficacy which corresponds to that of the untreated control, while an efficacy of 100% means that no disease is observed.

For assay [4], the system named is Puccinia triticina. The experiment in a line: In vivo preventive test on Puccinia triticina (wheat). The settings on record: 500 ppm of active ingredient, evaluated 8 days after inoculation. The protocol: as §1, with “sprayed” for “dusted”, “a spore suspension” for “spores”, “Puccinia triticina. The plants remain for 48 hours in an incubation cabinet at approximately 20° C. and a relative atmospheric humidity of approximately 100%.” for “Blumeria graminis f. sp. hordei.”, “20°” for “18°”, “80%.” for “80% to promote the development of mildew pustules.”, “8” for “7”

Assay [5] deals with Alternaria solani. Briefly: In vivo preventive test on Alternaria solani (tomato). The settings on record: 500 ppm of active ingredient, evaluated 7 days after inoculation. In short, it runs like this: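 Young tomato plants were sprayed preventively with compound in DMF/alkylarylpolyglycolether diluted in water, then inoculated one day later with A. solani spores. Incubation was 1 day at about 22 °C and 100% RH, then about 20 °C and 96% RH. Efficacy was scored 7 days after inoculation (0% = untreated control, 100% = no disease).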

For the molecule `Cc1cc(C)cc(C2CCCCN2C(=O)c2c(C)nn(C)c2F)c1` (centres unmarked) [Example 10], the Efficacy is 98% in assay [1]; 100% in assay [2]; 88% in assay [3]; 88% in assay [4]; 90% in assay [5].
In the case of `CCc1nn(C)c(F)c1C(=O)N1CCCCC1c1cc(C)cc(C)c1` (centres unmarked) [Example 11], the Efficacy was found to be 96% in assay [1]; 98% in assay [2]; 80% in assay [3]; 100% in assay [4]; 100% in assay [5].
In the case of `CCc1nn(C)c(F)c1C(=O)N1CCCCC1c1ccc(Cl)cc1` (centres unmarked) [Example 54], the Efficacy in assay [2] was determined as 96%; in assay [3], 70%; in assay [4], 100%; in assay [5] it was 95%.
For the molecule `CCC(c1ccccc1)C1CCCCN1C(=O)c1c(C(F)F)nn(C)c1F` (centres unmarked) [Example 136], the Efficacy in assay [2] worked out at 78%; in assay [3] it was 100%; in assay [5], 100%.
With `CCC(c1ccccc1)C1CCCCN1C(=S)c1c(C(F)F)nn(C)c1F` (centres unmarked) [Example 140], the Efficacy is 94% in assay [2], 100% in assay [3] and 100% in assay [5].

These data come from patent US9545105B2, “1-(heterocyclic carbonyl) piperidines” (BAYER INTELLECTUAL PROPERTY GMBH, priority 2010, dated 2017).
